Measured values taken from ChEMBL document CHEMBL6121046, “Discovery of Novel Hydrazide-Based HDAC3 Inhibitors as Epigenetic Immunomodulators for Cancer Immunotherapy” (J Med Chem, 2025).
Calls of active or inactive are those of the source. The rule behind the calls is not given here.

What was measured:
[1] = target: T1, Protein deacetylase HDAC6 (Homo sapiens, UniProt Q9UBN7); experiment: Inhibition of human recombinant HDAC6 pre-incubated with compounds for 10 mins measured followed by 60 mins of substrate addition
T1 sequence (Q9UBN7 whole entry): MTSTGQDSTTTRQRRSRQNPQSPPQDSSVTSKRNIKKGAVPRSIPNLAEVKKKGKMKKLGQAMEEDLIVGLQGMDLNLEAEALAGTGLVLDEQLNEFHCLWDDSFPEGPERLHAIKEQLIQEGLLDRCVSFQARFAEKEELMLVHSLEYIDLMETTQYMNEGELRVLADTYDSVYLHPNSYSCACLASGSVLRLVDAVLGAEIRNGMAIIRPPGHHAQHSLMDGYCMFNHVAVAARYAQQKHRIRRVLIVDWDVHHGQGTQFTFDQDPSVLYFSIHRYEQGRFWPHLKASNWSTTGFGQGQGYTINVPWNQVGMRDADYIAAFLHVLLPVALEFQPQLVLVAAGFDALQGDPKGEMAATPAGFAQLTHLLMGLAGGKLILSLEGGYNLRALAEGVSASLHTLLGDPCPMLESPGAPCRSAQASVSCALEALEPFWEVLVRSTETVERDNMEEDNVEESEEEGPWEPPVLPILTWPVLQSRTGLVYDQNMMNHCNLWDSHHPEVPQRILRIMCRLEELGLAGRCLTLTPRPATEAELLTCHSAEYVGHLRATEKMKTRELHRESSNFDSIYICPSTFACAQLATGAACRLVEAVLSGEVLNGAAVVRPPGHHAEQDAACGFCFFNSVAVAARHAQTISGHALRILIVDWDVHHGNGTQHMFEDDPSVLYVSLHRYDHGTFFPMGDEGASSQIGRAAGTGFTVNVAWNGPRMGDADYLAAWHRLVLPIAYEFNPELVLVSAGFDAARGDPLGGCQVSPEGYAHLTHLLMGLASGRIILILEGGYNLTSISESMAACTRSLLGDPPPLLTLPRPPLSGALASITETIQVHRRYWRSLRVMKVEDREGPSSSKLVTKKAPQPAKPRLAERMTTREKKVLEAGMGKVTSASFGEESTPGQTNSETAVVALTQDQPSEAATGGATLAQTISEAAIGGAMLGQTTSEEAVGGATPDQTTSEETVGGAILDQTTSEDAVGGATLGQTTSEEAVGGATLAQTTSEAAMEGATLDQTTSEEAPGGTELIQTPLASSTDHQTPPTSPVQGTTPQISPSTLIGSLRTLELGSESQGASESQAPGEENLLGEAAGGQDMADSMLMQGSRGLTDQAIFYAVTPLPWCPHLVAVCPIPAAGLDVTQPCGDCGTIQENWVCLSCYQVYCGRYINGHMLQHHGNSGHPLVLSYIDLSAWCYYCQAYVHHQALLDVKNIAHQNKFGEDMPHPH

MCF7 = experiment: Antiproliferative activity against human MCF7 cells measured after 48 hrs incubation by MTT assay relative to control; format: functional, cell-based; conditions: MCF7, 48 h
MC-38 [2] = experiment: Induction of apoptosis in mouse MC38 cells assessed as early apoptotic cells at 1 uM measured after 48 hrs by FITC/PI staining based flow cytometry (Rvb =12.27%); format: functional
MC-38 [3] = experiment: Induction of apoptosis in mouse MC38 cells assessed as late apoptotic cells at 1 uM measured after 48 hrs by FITC/PI staining based flow cytometry (reference value: 5.07%); format: functional
MC-38 [4] = experiment: Induction of apoptosis in mouse MC38 cells assessed as necrotic cells at 1 uM measured after 48 hrs by FITC/PI staining based flow cytometry (reference value: 0.56%); format: functional
MC-38 [5] = experiment: Induction of apoptosis in mouse MC38 cells assessed as viable cells at 2 uM measured after 48 hrs by FITC/PI staining based flow cytometry (reference value: 82.07%); format: functional; conditions: read-out: Activity
MC-38 [6] = experiment: Induction of apoptosis in mouse MC38 cells assessed as early apoptotic cells at 2 uM measured after 48 hrs by FITC/PI staining based flow cytometry (Rvb =12.27%); format: functional
MC-38 [7] = experiment: Induction of apoptosis in mouse MC38 cells assessed as viable cells at 4 uM measured after 48 hrs by FITC/PI staining based flow cytometry (reference value: 82.07%); format: functional; conditions: read-out: Activity
MC-38 [8] = experiment: Induction of apoptosis in mouse MC38 cells assessed as late apoptotic cells at 4 uM measured after 48 hrs by FITC/PI staining based flow cytometry (reference value: 5.07%); format: functional
MC-38 [9] = experiment: Induction of apoptosis in mouse MC38 cells assessed as necrotic cells at 8 uM measured after 48 hrs by FITC/PI staining based flow cytometry (reference value: 0.56%); format: functional
MC-38 [10] = experiment: Induction of mitochondrial membrane damage in mouse MC38 cells assessed as increase in JC-1 monomers by measuring green fluorescence at 2 uM measured after 48 hrs (reference value: 3.13%); format: functional
MC-38 [11] = experiment: Increase in acetylated H3 in mouse MC38 cells at 0.1 to 2 uM measured after 24 hrs incubation by Western blot analysis; format: functional, cell-based; conditions: dose 0.1-2 µM
MC-38 [12] = experiment: Effect on acetylated alpha-tubulin in mouse MC38 cells at 0.1 to 2 uM measured after 24 hrs incubation by Western blot analysis; format: functional, cell-based; conditions: dose 0.1-2 µM
[13] = AUC (0 to t) in Sprague-Dawley rat at 20 mg/kg, iv measured upto 12 hrs by LC-MS/MS analysis; format: ADME, organism-based; conditions: in vivo
[14] = MRT (0 to t) in Sprague-Dawley rat at 20 mg/kg, iv measured upto 12 hrs by LC-MS/MS analysis; format: ADME, organism-based; conditions: in vivo
[15] = Half life in Sprague-Dawley rat at 20 mg/kg, iv measured upto 12 hrs by LC-MS/MS analysis; format: ADME, organism-based; conditions: in vivo
[16] = MRT (0 to infinity) in Sprague-Dawley rat at 20 mg/kg, po measured upto 12 hrs by LC-MS/MS analysis; format: ADME, organism-based; conditions: in vivo
[17] = Cmax in Sprague-Dawley rat at 20 mg/kg, po measured upto 12 hrs by LC-MS/MS analysis; format: ADME, organism-based; conditions: in vivo
[18] = Oral bioavailability in Sprague-Dawley rat at 20 mg/kg measured upto 12 hrs by LC-MS/MS analysis; format: ADME, organism-based; conditions: in vivo
Mus musculus [19] = experiment: (§1) Immunomodulatory effect in C57BL/6 mouse allografted mouse MC38 cells assessed as increase in tumor infiltrating lymphocytes by measuring increase in CD4+ T helper cells in mouse spleen at 50 mg/kg, po treated 5 days after cell inoculation 19 th day by flow cytometry analysis (reference value: 10.8%); format: functional; conditions: time 15 day
Mus musculus [20] = experiment: as §1, with “CD8+” for “CD4+”, “tumor in presence of NP19 PD-L1 inhibitor” for “mouse spleen”, “2.32%)” for “10.8%)”; format: functional; conditions: time 15 day
Mus musculus [21] = experiment: Induction of PD-L1 expression in tumor in C57BL/6 mouse allografted with mouse MC38 cells at 50 mg/kg, po treated 5 days after cell inoculation 19 th day by immunofluorescence analysis; format: functional, organism-based; conditions: time 15.0 day
[22] = Toxicity in C57BL/6 mouse allografted with mouse MC38 cells assessed as alkaline phosphatase (AKP) level in serum at 50 mg/kg, po treated 5 days after cell inoculation 19 th day; format: organism-based; conditions: in vivo, 360 h, time 15 day
[23] = Toxicity in C57BL/6 mouse allografted with mouse MC38 cells assessed as aspartate aminotransferase (AST) level in serum at 50 mg/kg, po treated 5 days after cell inoculation 19 th day; format: organism-based; conditions: in vivo, 360 h, time 15 day

SMILES | IC50 [1] [nM] | IC50 (MCF7) [nM] | Activity (MC-38 [2]) [%] | Activity (MC-38 [3]) [%] | Activity (MC-38 [4]) [%] | viability at 2 µM (MC-38 [5]) [%] | Activity (MC-38 [6]) [%] | viability at 4 µM (MC-38 [7]) [%] | Activity (MC-38 [8]) [%] | Activity (MC-38 [9]) [%] | Activity (MC-38 [11]) | Activity (MC-38 [12]) | other results
CCCNNC(=O)c1ccc(CNC(=O)c2cnc(-c3ccc4occc4c3)[nH]2)cc1 | > 10000 | 1900 | 11.97 | 35 | 3.72 | 37.9 | 31.2 | 18.2 | 54.95 | 2.85 | Active | inactive | Activity (MC-38 [10]): 8%; AUC(0-t) at 12 h [13]: 1250 ng·h/mL; MRT last at 12 h [14]: 1.19 h; half-life [15]: 1 h; MRT inf [16]: 4.33 h; Cmax [17]: 347 ng/mL; F [18]: 11.5%; Activity (Mus musculus [19]): 12.9%; Activity (Mus musculus [20]): 7.83%; Activity (Mus musculus [21]): Active; Activity [22]: Non-toxic; Activity [23]: Non-toxic
CCCNNC(=O)c1ccc(CNC(=O)c2cnc(-c3cccc4ccccc34)[nH]2)cc1 | 9680 | 2160 | 15.8 | 30.57 | 2.9 | 31.3 | 18.6 | 28.3 | 26.83 | 8.29 | Active | inactive | –
